Counter-ions that a name gives are not always drawn.
target: nicotinic receptors containing the α7 subunit (Rattus norvegicus, UniProt Q05941); test: biochemical; type: binding
Sequence (Q05941 23-502): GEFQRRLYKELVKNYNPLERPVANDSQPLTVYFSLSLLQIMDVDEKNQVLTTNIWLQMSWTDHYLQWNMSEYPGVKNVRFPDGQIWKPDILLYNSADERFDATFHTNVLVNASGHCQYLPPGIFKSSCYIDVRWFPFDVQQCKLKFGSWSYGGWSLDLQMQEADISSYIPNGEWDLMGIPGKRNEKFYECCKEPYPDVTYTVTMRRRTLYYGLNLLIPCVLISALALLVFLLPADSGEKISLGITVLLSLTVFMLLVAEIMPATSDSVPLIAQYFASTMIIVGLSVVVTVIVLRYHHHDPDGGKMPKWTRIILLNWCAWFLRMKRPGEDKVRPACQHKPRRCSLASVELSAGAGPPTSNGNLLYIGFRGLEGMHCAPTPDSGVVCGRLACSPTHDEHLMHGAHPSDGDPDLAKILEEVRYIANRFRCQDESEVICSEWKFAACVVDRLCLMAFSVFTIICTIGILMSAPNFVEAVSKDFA

Question: For `COc1ccc(-c2ccc(C34CCCN(CC3)C4)nn2)cc1` (racemic) [Compound 7], which IC50 is on record?
Answer: 164 nM

Question: For `c1coc(-c2ccc(C34CCCN(CC3)C4)nn2)c1` (racemic) [Compound 8], which IC50 is on record?
Answer: 442 nM

Question: Which IC50 does the source give for `Cc1csc(-c2ccc(C34CCCN(CC3)C4)nn2)c1` (racemic) [Compound 3] here?
Answer: 428 nM

tested on: not given; test: not given

Question: With `c1cncc(-c2ccc(C34CCCN(CC3)C4)nn2)c1` (racemic) as the compound, how does the melting point read?
Answer: 131 to 133 °C

Question: Which melting point does the source give for `c1coc(-c2ccc(C34CCCN(CC3)C4)nn2)c1` (racemic) (as salt: HCl) [Compound 8] here?
Answer: 274 to 275 °C

Question: With `Cc1csc(-c2ccc(C34CCCN(CC3)C4)nn2)c1` (racemic) [Compound 3] as the compound, how does the melting point read?
Answer: 139 to 140 °C

Question: With `c1n[nH]cc1-c1ccc(C23CCCN(CC2)C3)nn1` (stereo not drawn) (as salt: HBr) [20] as the compound, how does the melting point read?
Answer: 221 to 223 °C

Question: For `c1c[nH]c(-c2ccc(C34CCCN(CC3)C4)nn2)c1` (stereo not drawn), which melting point is on record?
Answer: 207 to 209 °C

Question: For `c1n[nH]cc1-c1ccc(C23CCCN(CC2)C3)nn1` (stereo not drawn) (as salt: HBr) [22], which melting point is on record?
Answer: 295 to 297 °C

Question: For `c1nc(-c2ccc(C34CCCN(CC3)C4)nn2)c[nH]1` (stereo not drawn) (as salt: HCl) [18], which melting point is on record?
Answer: 271 to 273 °C

Question: With `COc1ccc(-c2ccc(C34CCCN(CC3)C4)nn2)cc1` (racemic) (as salt: HCl) [Compound 7] as the compound, how does the melting point read?
Answer: 229 to 231 °C

Question: With `c1cc(-c2ccc(C34CCCN(CC3)C4)nn2)co1` (stereo not drawn) (as salt: HCl) as the compound, how does the melting point read?
Answer: 226 to 228 °C

Question: With `c1c[nH]c(-c2ccc(C34CCCN(CC3)C4)nn2)n1` (stereo not drawn) (as salt: HBr) as the compound, how does the melting point read?
Answer: 290 to 292 °C

Question: Which melting point does the source give for `Clc1ccc(C23CCCN(CC2)C3)nn1` (racemic) (as salt: HCl) here?
Answer: 234 to 235 °C

Question: Which melting point does the source give for `c1cc(-c2ccc(C34CCCN(CC3)C4)nn2)co1` (racemic) here?
Answer: 140 to 141 °C
